Assay results: patent US20260207621A1 (Vividion Therapeutics, Inc., priority 2022, published 2026)
pIC50: −log10 of the molar value.

Experiments:
KEAP1 C151 = target: T1, KEAP1 C151 (Homo sapiens, UniProt Q14145); test: Nrf2 TMT measurement: in vitro TE50 for KEAP1 C151 (IA-DTB competition, targeted TMT mass spectrometry) in MDA-MB-468 cell lysate; type: binding; settings: in vitro target engagement of KEAP1 C151, targeted TMT, read-out: KEAP1_C151 TE50
T1 construct: treating 500 μg of cell lysate generated from MDA-MB-468 breast cancer cells with DMSO or compound; endogenous in cells; host or cells: MDA-MB-468 breast cancer cell lysate
Summary of the method: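 Occupancy of KEAP1 C151 measured as loss of IA-DTB labeling (200 μM, 1 h, room temperature) after 1 h compound pre-treatment of MDA-MB-468 cell lysate.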

Nrf2 = Nrf2 antagonism assay: ARE luciferase reporter in KYSE-70 cells; type: cell-based; settings: positive Imax corresponds to Nrf2 antagonism; for Emax: Homo sapiens, KYSE-70, KYSE-70 cells, read-out: KYSE70 Cellular ARE Luciferase Imax (%); for KYSE70 Cellular ARE Luciferase Imax (%): KYSE-70 cells
Summary of the method: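 Dose-response curves give IC50 and Imax, with positive Imax read as Nrf2 antagonism, i.e. reduced luciferase signal. Reporter cells are Nrf2-high KYSE-70 (Nrf2 W24C mutant) bearing ARE-controlled luciferase. Antagonists are proposed to act at KEAP1 C151, speeding Nrf2 degradation.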

T1 sequence (Q14145 whole entry): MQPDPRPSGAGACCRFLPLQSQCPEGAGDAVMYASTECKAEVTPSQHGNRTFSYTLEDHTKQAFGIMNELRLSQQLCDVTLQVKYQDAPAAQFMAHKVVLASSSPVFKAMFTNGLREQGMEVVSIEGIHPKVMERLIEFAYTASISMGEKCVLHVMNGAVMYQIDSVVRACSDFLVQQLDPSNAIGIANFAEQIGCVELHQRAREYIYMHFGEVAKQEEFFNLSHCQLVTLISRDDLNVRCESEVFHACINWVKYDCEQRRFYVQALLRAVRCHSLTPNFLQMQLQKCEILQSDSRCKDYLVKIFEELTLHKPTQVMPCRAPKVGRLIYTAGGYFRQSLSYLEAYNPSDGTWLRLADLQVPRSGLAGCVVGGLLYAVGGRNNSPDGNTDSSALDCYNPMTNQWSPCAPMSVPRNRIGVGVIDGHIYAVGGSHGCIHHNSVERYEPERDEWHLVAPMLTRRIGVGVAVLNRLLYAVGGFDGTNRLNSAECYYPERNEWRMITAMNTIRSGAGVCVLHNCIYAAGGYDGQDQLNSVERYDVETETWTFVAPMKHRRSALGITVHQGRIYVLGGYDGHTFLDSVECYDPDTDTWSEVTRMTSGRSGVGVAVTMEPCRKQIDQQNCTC

## C=CC(=O)N1CC2(CC2)OCC1(C)c1cc(Cl)cc(-c2ccnc(N)n2)c1 (single isomer, unassigned) [Compound 161, 1-(6-(3-(2-aminopyrimidin-4-yl)-5-chlorophenyl)-6-methyl-4-oxa-7-azaspiro[2.5]octan-7-yl)prop-2-en-1-one]
KEAP1 C151
  pIC50: 6.06
Nrf2
  Emax: 83%

## C=CC(=O)N1CC2(CCCC2)OCC1(C)c1cc(Cl)cc(-c2ccnc(N)n2)c1 (single isomer, unassigned) [Compound 163, 1-(8-(3-(2-aminopyrimidin-4-yl)-5-chlorophenyl)-8-methyl-6-oxa-9-azaspiro[4.5]decan-9-yl)prop-2-en-1-one]
KEAP1 C151
  pIC50: 6.21
Nrf2
  Emax: 72%

## C=CC(=O)N1CC2(CCCC2)OCC1(C)c1cc(Cl)cc(-c2ncnc(N)n2)c1 (single isomer, unassigned) [Compound 164, 1-(8-(3-(4-amino-1,3,5-triazin-2-yl)-5-chlorophenyl)-8-methyl-6-oxa-9-azaspiro[4.5]decan-9-yl)prop-2-en-1-one]
KEAP1 C151
  pIC50: 6.36
Nrf2
  Emax: 85%

## C=CC(=O)N1CC2(CC2)OCC1(C)c1cc(Cl)cc(-c2ncc(F)cn2)c1 (single isomer, unassigned) [Compound 165, 1-(6-(3-chloro-5-(5-fluoropyrimidin-2-yl)phenyl)-6-methyl-4-oxa-7-azaspiro[2.5]octan-7-yl)prop-2-en-1-one]
KEAP1 C151
  pIC50: 6.48
Nrf2
  Emax: 53%

## C=CC(=O)N1CC2(CCCC2)OCC1(C)c1cc(Cl)cc(-c2ncc(F)cn2)c1 (single isomer, unassigned) [Compound 166, 1-(8-(3-chloro-5-(5-fluoropyrimidin-2-yl)phenyl)-8-methyl-6-oxa-9-azaspiro[4.5]decan-9-yl)prop-2-en-1-one]
KEAP1 C151
  pIC50: 6.28
Nrf2
  Emax: 50%

## C=CC(=O)N1CC2(CC2)OCC1(C)c1cc(Cl)cc(-c2cc(N)ncn2)c1 (single isomer, unassigned) [Compound 167, 1-(6-(3-(6-aminopyrimidin-4-yl)-5-chlorophenyl)-6-methyl-4-oxa-7-azaspiro[2.5]octan-7-yl)prop-2-en-1-one]
KEAP1 C151
  pIC50: 5.54
Nrf2
  Emax: 87%

## C=CC(=O)N1CC2(COC2)C1c1cc(Cl)cc(-c2ccnc(N)n2)c1 (single isomer, unassigned) [Compound 168]
KEAP1 C151
  pIC50: 6.92
Nrf2
  Emax: 74%

## C=CC(=O)N1[C@H](C(=O)N(C)C)COC[C@H]1c1cc(Cl)nc(-c2cc(N)ncn2)c1 (single isomer, unassigned) [Compound 169]
KEAP1 C151
  pIC50: 7.15
Nrf2
  Emax: 82%

## C=CC(=O)N1CC2(CCCC2)OCC1(C)c1cc(Cl)cc(-c2cc(N)ncn2)c1 (single isomer, unassigned) [Compound 170, 1-(8-(3-(6-aminopyrimidin-4-y1)-5-chlorophenyl)-8-methyl-6-oxa-9-azaspiro[4.5]decan-9-yl)prop-2-en-1-one]
KEAP1 C151
  pIC50: 5.78
Nrf2
  Emax: 81%

## C=CC(=O)N1CC2(CCCC2)OCC1(C)c1cc(Cl)cc(-c2nccc(N)n2)c1 (single isomer, unassigned) [Compound 171, 1-(8-(3-(4-aminopyrimidin-2-yl)-5-chlorophenyl)-8-methyl-6-oxa-9-azaspiro[4.5]decan-9-yl)prop-2-en-1-one]
KEAP1 C151
  pIC50: 6.46
Nrf2
  Emax: 72%

## C=CC(=O)N1[C@H](C(N)=O)COC[C@H]1c1cc(Cl)nc(-c2cc(N)ncn2)c1 (single isomer, unassigned) [Compound 172]
KEAP1 C151
  pIC50: 7.70
Nrf2
  Emax: 71%

## C=CC(=O)N1[C@H](C(=O)NC)COC[C@H]1c1cc(Cl)nc(-c2cc(N)ncn2)c1 (single isomer, unassigned) [Compound 173]
KEAP1 C151
  pIC50: > 8.19
Nrf2
  Emax: 86%

## C=CC(=O)N1CC2(CC2)OCC1c1cc(Cl)nc(-c2cc(N)ncn2)c1 (single isomer, unassigned) [Compound 174, 1-(6-(2-(6-aminopyrimidin-4-yl)-6-chloropyridin-4-yl)-4-oxa-7-azaspiro[2.5]octan-7-yl)prop-2-en-1-one]
KEAP1 C151
  pIC50: 7.12
Nrf2
  KYSE70 Cellular ARE Luciferase Imax (%): 51%

## C=CC(=O)N1CC2(CC2)OCC1c1cc(Cl)nc(-c2cc(N)ncn2)c1 (single isomer, unassigned) [Compound 175, 1-(6-(2-(6-aminopyrimidin-4-yl)-6-chloropyridin-4-yl)-4-oxa-7-azaspiro[2.5]octan-7-yl)prop-2-en-1-one]
KEAP1 C151
  pIC50: 7.49
Nrf2
  KYSE70 Cellular ARE Luciferase Imax (%): 92%

## C=CC(=O)N1CCOC[C@H]1c1cc(Cl)cc(-c2nc(N)[nH]c(=O)n2)c1 (single isomer, unassigned) [Compound 177]
KEAP1 C151
  pIC50: 6.82
Nrf2
  Emax: 87%

## C=CC(=O)N1CCOC[C@H]1c1cc(Cl)cc(-c2nc(C)nc(N)n2)c1 (single isomer, unassigned) [Compound 178]
KEAP1 C151
  pIC50: 7.52
Nrf2
  Emax: 93%

## C=CC(=O)N1C[C@@H](C)OC[C@H]1c1cc(Cl)cc(-c2ccc(F)c(C(N)=O)c2)c1 (single isomer, unassigned) [Compound 179]
KEAP1 C151
  pIC50: 6.72
Nrf2
  Emax: 92%

## C=CC(=O)N1[C@H](c2cc(Cl)nc(-c3ccc(F)c(C(N)=O)c3)c2)COC[C@H]1C(F)F (single isomer, unassigned) [Compound 180]
KEAP1 C151
  pIC50: 8.14
Nrf2
  Emax: 90%

## C=CC(=O)N1C[C@H](C)OC[C@H]1c1cc(Cl)cc(-c2ccc(F)c(C(N)=O)c2)c1 (single isomer, unassigned) [Compound 182]
KEAP1 C151
  pIC50: 7.80
Nrf2
  Emax: 89%

## C=CC(=O)N1CCN(C(C)=O)C[C@H]1c1cc(Cl)cc(-c2nccc(N)n2)c1 (single isomer, unassigned) [Compound 183]
KEAP1 C151
  pIC50: 7.57
Nrf2
  Emax: 87%

## C=CC(=O)N1CCN(C(C)=O)C[C@H]1c1cc(Cl)cc(-c2cc(N)ncn2)c1 (single isomer, unassigned) [Compound 187]
KEAP1 C151
  pIC50: 6.92
Nrf2
  Emax: 71%

## C=CC(=O)N1CCN(C(C)=O)C[C@H]1c1cc(Cl)cc(-c2ncc(N)cn2)c1 (single isomer, unassigned) [Compound 188]
KEAP1 C151
  pIC50: 7.74
Nrf2
  Emax: 86%

## C=CC(=O)N1CC2(CC2)OCC1c1cc(Cl)nc(-c2ccn3ccnc3c2)c1 (single isomer, unassigned) [Compound 190, 1-(6-(2-chloro-6-(imidazo[1,2-a]pyridin-7-yl)pyridin-4-yl)-4-oxa-7-azaspiro[2,5]octan-7-yl)prop-2-en-1-one]
KEAP1 C151
  pIC50: 8.18
Nrf2
  Emax: 75%

## C=CC(=O)N1CCOC[C@H]1c1cc(Cl)cc(-c2nc(N)nc(N)n2)c1 (single isomer, unassigned) [Compound 191]
KEAP1 C151
  pIC50: 7.92
Nrf2
  Emax: 93%

## C=CC(=O)N1CC2(CC2)OCC12COc1c(-c3ccnc(N)n3)cc(Cl)cc12 (single isomer, unassigned) [Compound 192]
KEAP1 C151
  pIC50: 5.17
Nrf2
  Emax: 64%

## C=CC(=O)N1[C@H](c2cc(Cl)nc(-c3ccnc(N)n3)c2)COC[C@H]1C(F)F (single isomer, unassigned) [Compound 203]
KEAP1 C151
  pIC50: 7.96
Nrf2
  Emax: 87%

## C=CC(=O)N1[C@H](CC#N)COC[C@H]1c1cc(Cl)cc(-c2cc(N)ncn2)c1 (single isomer, unassigned) [Compound 204]
KEAP1 C151
  pIC50: 7.96
Nrf2
  Emax: 86%

## C=CC(=O)N1CCS(=O)(=O)CC1c1cc(Cl)cc(-c2ncnc(N)n2)c1 (single isomer, unassigned) [Compound 205, 1-(3-(3-(4-amino-1,3,5-triazin-2-yl)-5-chlorophenyl)-1,1-dioxidothiomorpholino)prop-2-en-1-one]
KEAP1 C151
  pIC50: 7.47
Nrf2
  KYSE70 Cellular ARE Luciferase Imax (%): 92%
